Data set [1] relates to Staphylococcus aureus. Put plainly: Antibacterial activity against Staphylococcus aureus ATCC 6538 assessed as inhibition of bacterial growth at 2 to 4 times MIC measured every 2 hrs for 24 hrs by time kill assay relative to control. It counts as functional.
The subject of data set [2] is Staphylococcus aureus. Put plainly: Induction of intracellular ROS accumulation in methicillin-resistant Staphylococcus aureus assessed as number of fluorescence cells at 2 times MIC incubated for 6 hrs by DCFH-DA staining based flow cytometry analysis (reference value: 3.88).
The test system of data set [3] is Staphylococcus aureus. Put plainly: Bactericidal activity against Staphylococcus aureus ATCC 6538 measured after 24 hrs. The format is functional.
The test system of data set [4] is Staphylococcus aureus. Put plainly: Antibacterial activity against Staphylococcus aureus ATCC 6538 assessed as delay in bacterial growth at 0.5 times MIC measured every 2 hrs for 24 hrs by time kill assay. It counts as functional, organism-based.
Data set [5] relates to Staphylococcus aureus. Put plainly: Antibacterial activity against methicillin-resistant Staphylococcus aureus infected in female C57BL/6 mouse wound model assessed as reduction in wound area at 30 mg/kg administered twice on wounds with 6 hrs interval and measured for 7 days. It counts as functional, organism-based. The following applies: time 7.0 day.
The subject of data set [6] is Cell membrane. Put plainly: Disruption of cell membrane integrity in methicillin-resistant Staphylococcus aureus assessed as rupture of cell membrane at 8 times MIC incubated for 8 hrs by TEM analysis. It counts as cell membranes.
Data set [7] deals with Staphylococcus aureus. Put plainly: Antibacterial activity against methicillin-resistant Staphylococcus aureus measured after 24 hrs by susceptibility assay. The format is functional.
In data set [8] the test system is Staphylococcus aureus. Put plainly: Induction of intracellular ROS accumulation in methicillin-resistant Staphylococcus aureus assessed as number of fluorescence cells at 4 times MIC incubated for 6 hrs by DCFH-DA staining based flow cytometry analysis (reference value: 3.88). A general note: Flow cytometry measures light scatter and fluorescence of single cells or particles in a stream.

For data set [9], the system named is NIH3T3. Put plainly: Cytotoxicity against mouse NIH3T3 cells assessed as reduction in cell viability upto 64 times MIC incubated for 24 hrs by CCK-8 assay. The note with it: nih3t3, 24 h. It counts as toxicity, cell-based. A general note: Formazan colour is commonly taken as a measure of viable cells.

SMILES strings stand for the structures. Converted amounts (≈) assume the structure as drawn. The source made the active and inactive calls. No cut-off for these calls is given here.

The MBC is the lowest tested concentration that kills the bacteria rather than only halting them. As usually defined, the MIC is the lowest concentration found to suppress growth. A lower MIC goes with greater potency.

As to `CC1(C)CC[C@]2(C(=O)NS(=O)(=O)c3ccc(Cl)cc3)CC[C@]3(C)C(=CC[C@@H]4[C@@]5(C)Cc6c([nH]c7c(C(=O)O)cccc67)C(C)(C)[C@@H]5CC[C@]43C)[C@@H]2C1`, the “inhibition (INH)” value in data set [1] is given as 100%. For the same molecule, the Activity in [2] is 1.57; in [8] it was 1.91; in data set [9], “Non-Toxic”. This molecule also yielded a minimum bactericidal concentration (MBC) in data set [3] of 2 µM (≈ 1.49 µg/mL). Besides, the result in [4], in data set [5] and in [6] was Active. This molecule also had a minimum inhibitory concentration (MIC) in data set [7] of 1 µM (≈ 0.745 µg/mL).

The record behind these values is ChEMBL document CHEMBL5608189, “Design and synthesis of unique indole-benzosulfonamide oleanolic acid derivatives as potent antibacterial agents against MRSA” (Eur J Med Chem, 2024).
